According to US7972815B2, “Method of producing sugar chain using human G4 polypeptide” (Kyowa Hakko Kirin Co., Ltd., priority 1999, dated 2011):
Read-outs that look alike come from different tables or passages of the source.

Key:
[1] = molecular target: T1, β1,3-N-acetylglucosaminyl transferase (G3) (Homo sapiens, UniProt Q9NY97); assay: Substrate specificity of G3 with pyridylaminated oligosaccharides; type: biochemical; conditions: 2 hours; for Relative activity (%): pyridylaminated substrate, 37° C., activity on LNnT defined as 100%
T1 construct: made in house; host or cells: Sf21 insect cells infected with recombinant baculovirus from pVL1393-F2G3
T1 sequence (Q9NY97 31-397): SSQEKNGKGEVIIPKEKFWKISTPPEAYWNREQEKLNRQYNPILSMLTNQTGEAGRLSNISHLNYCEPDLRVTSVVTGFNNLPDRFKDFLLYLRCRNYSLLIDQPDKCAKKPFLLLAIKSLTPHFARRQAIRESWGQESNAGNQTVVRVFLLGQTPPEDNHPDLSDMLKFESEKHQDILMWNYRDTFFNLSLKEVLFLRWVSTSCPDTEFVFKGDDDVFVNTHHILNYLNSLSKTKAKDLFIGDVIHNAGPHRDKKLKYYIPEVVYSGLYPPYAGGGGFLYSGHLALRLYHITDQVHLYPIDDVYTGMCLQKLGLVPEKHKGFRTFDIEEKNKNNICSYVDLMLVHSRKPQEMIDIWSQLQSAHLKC
Method: The method shown in Example 8 was used as the activity measuring method. Specifically, after the reaction at 37° C. for 14.5 hours in 30 μl of an assay solution [200 mmol/l of MOPS (pH 7.5), 20 mmol/l of UDP-GlcNAc (SIGMA), 20 mmol/l of MnCl2, 50 μmol/l of pyridylaminated sugar chain substrate and 15 μl of the above eluate], products were detected by HPLC. As substrates, LNnT, lacto-N-tetraose (Galβ1-3GlcNAcβ1-3Galβ1-4Glc, hereinafter referred to as “LNT”), lacto-N-fucopentaose II (Galβ1-3(Fucα1-4)GlcNAcβ1-3Galβ1-4Glc, hereinafter referred to as “LNFP-II”), lacto-N-fucopentaose III (Galβ1-4(Fucα1-3)GlcNAcβ1-3Galβ1-4Glc, hereinafter referred to as “LNFP-III”), lacto-N-fucopentaose V (Galβ1-3GlcNAcβ1-3Galβ1-4(Fucα1-3)Glc, hereinafter referred to as “LNFP-V”) and lacto-N-difucohexaose II (Galβ1-3(Fucα1-4)GlcNAcβ1-3Galβ1-4(Fucα1-3)Glc, hereinafter referred to as “LNDFH-II”) (all manufactured by Oxford Glycosystems) were used after fluorescently labeling them with aminopyridine. Fluorescence labeling of these substrates were carried out in accordance with the usual method [Agric. Biol. Chem., 54, 2169 (1990)].
For each substrate, the reaction was carried using the assay solution with or without UDP-GlcNAc (sugar donor), and then HPLC was carried out and peaks appeared only in the assay solution containing UDP-GlcNAc were defined as products.
The assay solution after completion of the reaction was treated at 100° C. for 5 minutes and then centrifuged at 10,000×g for 5 minutes, and a portion (5 μl) of the thus obtained supernatant was applied to HPLC.
The HPLC was carried out by using TSK-gel ODS-80Ts column (4.6×300 mm; Tosoh); 0.02 mol/l ammonium acetate buffer (pH 4.0) was used as the eluate at an elution temperature of 50° C. and at a flow rate of 0.5 ml/min.
Products were detected by using a fluorescence spectrum photometer FP-920 (JASCO Corporation) (excitation wavelength 320 nm, radiation wavelength 400 nm).
Substrate specificity of a β1,3-N-acetylglucosaminyl transferase (G3) was examined using the FLAG peptide-fused G3 polypeptide purified in Example 14.
Substrate specificity of the FLAG peptide-fused G3 polypeptide was examined by the method shown in Example 11(1). The reaction was carried out at 37° C. for 2 hours.

β3GnT = molecular target: T2, β3GnT (Homo sapiens, UniProt Q9NY97); conditions: reported values, Proc. Natl. Acad. Sci. USA, 96, 406 (1999), cited from earlier work
T2 sequence (Q9NY97 1-397): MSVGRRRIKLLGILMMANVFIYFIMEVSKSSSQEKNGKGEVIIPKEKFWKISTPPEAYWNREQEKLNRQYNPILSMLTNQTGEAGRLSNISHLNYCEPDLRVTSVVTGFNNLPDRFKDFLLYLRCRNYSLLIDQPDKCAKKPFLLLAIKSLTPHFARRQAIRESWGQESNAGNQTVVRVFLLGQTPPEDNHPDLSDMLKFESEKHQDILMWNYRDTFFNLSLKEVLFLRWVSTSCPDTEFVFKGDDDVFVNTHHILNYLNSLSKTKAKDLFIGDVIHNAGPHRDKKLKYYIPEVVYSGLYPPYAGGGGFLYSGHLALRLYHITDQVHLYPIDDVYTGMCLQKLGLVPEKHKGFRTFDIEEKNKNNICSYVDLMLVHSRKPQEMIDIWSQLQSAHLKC

| conversion efficiency of the substrate into the product ([1]; pyridylaminated LNnT as substrate) | Relative activity (%) [1] | Compound | Relative activity (%) β3GnT (β3GnT; Table 4) | Relative activity (%) β3GnT (β3GnT; Table 6) |
| --- | --- | --- | --- | --- |
| 82.5% | 100% | CC(=O)N[C@H]1[C@H](O[C@H]2[C@@H](O)[C@@H](CO)O[C@@H](O[C@H]3[C@H](O)[C@@H](O)C(O)O[C@@H]3CO)[C@@H]2O)O[C@H](CO)[C@@H](O[C@@H]2O[C@H](CO)[C@H](O)[C@H](O)[C@H]2O)[C@@H]1O (mixture of isomers) [LNnT, lacto-N-neotetraose] | 100% | 100% |
| – | 3.7% | CC(=O)N[C@H]1[C@H](O[C@H]2[C@@H](O)[C@@H](CO)O[C@@H](O[C@H]3[C@H](O)[C@@H](O)C(O)O[C@@H]3CO)[C@@H]2O)O[C@H](CO)[C@@H](O)[C@@H]1O[C@@H]1O[C@H](CO)[C@H](O)[C@H](O)[C@H]1O (stereo partly shown) [LNT, lacto-N-tetraose] | 6% | 6% |
